According to paper PMC9037111, “Structure-based design, synthesis, and biological evaluation of novel piperine–resveratrol hybrids as antiproliferative agents targeting SIRT-2” (RSC Advances, 2021):
Read-outs that look alike come from different tables or passages of the source.

How the values were obtained:
Test in all cases: cells
Design in all cases: species or system NCI-60 human tumour cell lines; NCI-60 one-dose screen at 10 uM, percent growth inhibition versus untreated control cells
[1] = test system: 786-0; conditions: Homo sapiens, 786-0, growth inhibition, one dose
Method: (§1) The antiproliferative activity of the target compounds 5a–h was screened against a panel of 60 cancer cell lines according to NCI-guidelines at concentration of 10 μM. The results for each compound (Table 1) were recorded as the percent of growth inhibition of treated cells compared to untreated control cells. […] In addition, 5b recorded significant activity against leukemia cancer cell lines K-562 and MOLT-4, Non-small cell lung cancer cell lines NCI-H322M and NCI-H460, Colon cancer cell lines COLO 205, HCT-15 and HCT-116, CNS cancer cell lines SF-295 and SF-539, Melanoma cancer cell lines LOX IMVI and UACC-62, Ovarian cancer cell lines NCI/ADR-RES, OVCAR-3, and OVCAR-4, Renal cancer cell lines CAKI-1, ACHN, and UO-31, and Breast cancer MCF7 cell line with growth inhibition percentage between 80 to 95. […] The methodology of the NCI anticancer screening has been described in detail elsewhere (https://dtp.cancer.gov/).[52]

[2] = test system: A549/ATCC; conditions: Homo sapiens, A549, growth inhibition, one dose
Method: as §1

[3] = test system: CAKI-1; conditions: Homo sapiens, CAKI-1, growth inhibition, one dose
Method: as §1

[4] = test system: CCRF-CEM; conditions: Homo sapiens, CCRF-CEM, growth inhibition, one dose
Method: as §1

[5] = test system: EKVX; conditions: Homo sapiens, EKVX, growth inhibition, one dose
Method: as §1

[6] = test system: HOP-92; conditions: Homo sapiens, HOP-92, growth inhibition, one dose
Method: as §1

[7] = test system: IGROV1; conditions: Homo sapiens, IGROV-1, growth inhibition, one dose
Method: as §1

[8] = test system: KM12; conditions: Homo sapiens, KM12, growth inhibition, one dose
Method: as §1

[9] = test system: NCI-H460; conditions: Homo sapiens, NCI-H460, growth inhibition, one dose
Method: as §1

[10] = test system: NCI-H522; conditions: Homo sapiens, NCI-H522, growth inhibition, one dose
Method: as §1

[11] = test system: OVCAR-4; conditions: Homo sapiens, OVCAR-4, growth inhibition, one dose
Method: as §1

[12] = test system: PC-3; conditions: Homo sapiens, PC-3, growth inhibition, one dose
Method: as §1

[13] = test system: SF-539; conditions: Homo sapiens, SF-539, growth inhibition, one dose
Method: as §1

[14] = test system: SK-MEL-28; conditions: Homo sapiens, SK-MEL-28, growth inhibition, one dose
Method: as §1

[15] = test system: SNB-75; conditions: Homo sapiens, SNB-75, growth inhibition, one dose
Method: as §1

[16] = test system: T-47D; conditions: Homo sapiens, T47D, growth inhibition, one dose
Method: as §1

[17] = test system: UACC-257; conditions: Homo sapiens, UACC-257, growth inhibition, one dose
Method: as §1

[18] = test system: UACC-62; conditions: Homo sapiens, UACC-62, growth inhibition, one dose
Method: as §1

[19] = read-out: Growth% inhibition / 5b
[20] = read-out: Growth% inhibition / 5d
[21] = read-out: Growth% inhibition / 5h
[22] = read-out: Growth% inhibition / 5a

O=C(/C=C/C=C/c1ccc2c(c1)OCO2)N/N=C/c1ccc(O)cc1O [5b, (2E,4E)-5-(Benzo[d][1,3]dioxol-5-yl)-N′-((E)-2,4-dihydroxybenzylidene)penta-2,4-dienehydrazide]
inhibition at 10 µM [1, 19]: 71% | inhibition at 10 µM [2, 19]: 63.9% | inhibition at 10 µM [3, 19]: 90.3% | inhibition at 10 µM [4, 19]: 81% | inhibition at 10 µM [5, 19]: 79.8% | inhibition at 10 µM [6, 19]: 46.6% | inhibition at 10 µM [7, 19]: 71.1% | inhibition at 10 µM [8, 19]: 76.6% | inhibition at 10 µM [9, 19]: 86% | inhibition at 10 µM [10, 19]: 78.9% | inhibition at 10 µM [11, 19]: 90.8% | inhibition at 10 µM [12, 19]: 62% | inhibition at 10 µM [13, 19]: 85.7% | inhibition at 10 µM [14, 19]: 57.9% | inhibition at 10 µM [15, 19]: 36% | inhibition at 10 µM [16, 19]: 76.1% | inhibition at 10 µM [17, 19]: 71.5% | inhibition at 10 µM [18, 19]: 85.7%

CN(C)c1ccc(C=NNC(=O)/C=C/C=C/c2ccc3c(c2)OCO3)cc1 (mixture of isomers) [5d, (2E,4E)-5-(Benzo[d][1,3]dioxol-5-yl)-N′-((E/Z)-4-(dimethylamino)-benzylidene)penta-2,4-dienehydrazide]
inhibition at 10 µM [3, 20]: 24.6% | inhibition at 10 µM [4, 20]: 20.5% | inhibition at 10 µM [7, 20]: 10.1% | inhibition at 10 µM [8, 20]: 14.2% | inhibition at 10 µM [10, 20]: 11.7% | inhibition at 10 µM [12, 20]: 15% | inhibition at 10 µM [15, 20]: 25.7% | inhibition at 10 µM [18, 20]: 16.1%

C/C(=N\NC(=O)/C=C/C=C/c1ccc2c(c1)OCO2)c1ccc(Br)cc1 [5h, (2E,4E)-5-(Benzo[d][1,3]dioxol-5-yl)-N′-((E)-1-(4-bromophenyl)ethylidene)penta-2,4-dienehydrazide]
inhibition at 10 µM [1, 21]: 14.6% | inhibition at 10 µM [2, 21]: 12.5% | inhibition at 10 µM [3, 21]: 28.1% | inhibition at 10 µM [4, 21]: 44.3% | inhibition at 10 µM [5, 21]: 25% | inhibition at 10 µM [6, 21]: 11.5% | inhibition at 10 µM [7, 21]: 29.7% | inhibition at 10 µM [8, 21]: 24.9% | inhibition at 10 µM [9, 21]: 60.4% | inhibition at 10 µM [10, 21]: 19.9% | inhibition at 10 µM [11, 21]: 65.2% | inhibition at 10 µM [12, 21]: 30.9% | inhibition at 10 µM [13, 21]: 12.5% | inhibition at 10 µM [14, 21]: 14.2% | inhibition at 10 µM [15, 21]: 68.1% | inhibition at 10 µM [16, 21]: 65% | inhibition at 10 µM [17, 21]: 12% | inhibition at 10 µM [18, 21]: 28.5%

O=C(/C=C/C=C/c1ccc2c(c1)OCO2)NN=Cc1ccc(O)cc1 [5a, (2E,4E)-5-(Benzo[d][1,3]dioxol-5-yl)-N′-((E,Z)-4-hydroxybenzylidene)penta-2,4-dienehydrazide]
inhibition at 10 µM [3, 22]: 25.1% | inhibition at 10 µM [4, 22]: 32.4% | inhibition at 10 µM [7, 22]: 24.7% | inhibition at 10 µM [8, 22]: 33.4% | inhibition at 10 µM [10, 22]: 22.8% | inhibition at 10 µM [11, 22]: 12.7% | inhibition at 10 µM [12, 22]: 19.8% | inhibition at 10 µM [13, 22]: 17.6% | inhibition at 10 µM [15, 22]: 27% | inhibition at 10 µM [16, 22]: 18.6% | inhibition at 10 µM [18, 22]: 28.5%
